What is called EC50 is the concentration that produces a half-maximal response. For orientation: IC50 means the concentration needed to halve the response being measured.

Read-outs that look alike come from different tables or passages of the source.

The subject of one data set is EOC2 cell. The experiment in a line: Cell proliferation assay, EOC2. In kind it is cell-based, mouse. The conditions noted are these: Mus musculus, 72 h.
For a further data set, the target named is CSF-1R (Homo sapiens (Human), UniProt P07333). The experiment in a line: Biochemical HTRF kinase assay, CSF-1R.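 Note: enzyme incubated with inhibitor plus a substrate and ATP mix for one hour at room temperature before HTRF detection.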 The conditions noted are these: recombinant human CSF-1R. (In general: In TR-FRET formats the signal depends on donor and acceptor labels being close together.)
Data set [1] is described as follows: Plasma protein binding study. The format is in vitro ADME. As to conditions: mouse plasma, equilibrium dialysis 4 hours; read-out: PPB-mouse (Bound) (%) (converted). The protocol: On the day of experiment, the plasma was thawed under running cold tap water and centrifuged at 3220×g for 5 min to remove any clots. The pH value was checked and recorded. Only plasma within range of pH 7.0 to pH 8.0 was used. Pretreat the dialysis membrane according to the manufacturer's instructions: the dialysis membrane strips were soaked in ultra pure water at room temperature for approximately 1 hr. After that, each membrane strip that contains 2 membranes was separated and soaked in ethanol:water (20:80 v:v) for approximately 20 min, after which it was ready for use or was stored in the solution at 2-8° C. for up to 1 month. Prior to the experiment, the membrane was rinsed and soaked for 20 min in ultra pure water for use. Working solutions (400 μM) of test compound and control compound were prepared. Aliquots of working solutions (3 μL) were spiked into blank matrix (597 μL) to achieve final concentrations and mixed thoroughly. Aliquots of 50 μL loading matrix containing test compound or control compound in triplicate was transferred to Sample Collection Plate, respectively. The samples were matched with opposite blank buffer to obtain a final volume of 100 μL with a volume ratio of matrix:Dialysis Buffer (1:1, v:v) in each well immediately. The stop solution was added to these T0 samples of test compound and control compound. The plate was sealed and shaked at 800 rpm for 10 min. Then these T0 samples were stored at 2-8° C. pending further process along with other post-dialysis samples. The dialysis instrument was assembled following manufacture's instructions. An aliquot of 100 μL of the loading matrix containing test compound or control compound was transferred to the donor side of each dialysis well in triplicate and 100 μL of the Dialysis Buffer was loaded to the receiver side of the well. Then the plate was rotated at approximately 100 rpm in a humidified incubator with 5% CO2 at 37±1° C. for 4 hours. At the end of the dialysis, aliquots of 50 μL samples from the buffer side and matrix side of the dialysis device were taken into new 96-well plates (Sample Collection Plates). An equal volume of opposite blank matrix (buffer or matrix) in each sample was added to reach a final volume of 100 μL with volume ratio of matrix:Dialysis Buffer at 1:1 (v:v) in each well. All samples were further processed by protein precipitation for LC/MS/MS analysis.
A general note: In equilibrium dialysis free small molecules cross a membrane that holds back macromolecules.

For the next data set, the target named is FLT3 (Homo sapiens (Human), UniProt P36888). The experiment in a line: Biochemical HTRF kinase assay, FLT3. The conditions noted are these: for IC50: recombinant human protein; for FLT3 Fold: selectivity: IC50 of FLT3 as multiple of IC50 of CSF-1R.
Data set [2] concerns CSF1R phosphorylation in BV2 cells. The experiment in a line: p-CSF1R Western blot assay in BV2 cells. The format is cell-based, murine. As to conditions: Mus musculus, BV-2, 30 minutes pretreatment, CSF1 100 ng/mL 5 minutes.
The test system of data set [3] is CSF1R phosphorylation in THP-1 cells. The experiment in a line: Inhibition of CSF1R phosphorylation in THP-1 monocytes (ELISA, Table D). In kind it is cell-based, human. The conditions noted are these: FIG. 6. The procedure: The THP-1 human monocyte-like cell line has intact CSF1R signaling that allows for the probing of the activation status of this pathway when stimulated by recombinant CSF. THP-1 cells were expanded in-vitro and pretreated with CSF1R inhibitors for an hour prior to stimulation with recombinant human M-CSF for 5 minutes. The cells were lysed, and the lysate was probed for activated CSF1R (pCSF1R) using ELISA. Using GraphPad Prism, a four-parameter logistic regression was applied to determine the potency of the CSF1R inhibitors.

Data set [4] concerns ERK1/2 phosphorylation in BV2 cells. The experiment in a line: p-ERK1/2 Western blot assay in BV2 cells. In kind it is cell-based, murine. The conditions noted are these: Mus musculus, BV-2, 30 minutes pretreatment, CSF1 100 ng/mL 5 minutes. A general note: Immunoblotting shows a protein as a band on a membrane.
The test system of another data set is BV2 cells. The experiment in a line: BV2 cell proliferation (Cell Titer Glo). The format is cell-based, murine. As to conditions: Mus musculus, BV-2, CSF1 100 ng/mL, 72 h.
Data set [5] has as its system CSF1R phosphorylation in THP-1 cells. The experiment in a line: p-CSF1R ELISA assay in THP1 cells. In kind it is cell-based. As to conditions: Homo sapiens, THP1 cells pre-treated one hour, stimulated with hCSF1, read-out: THP1 pCSFIR ELISA EC50.
Data set [6] relates to microglia (Iba1+ cells) in cortex and hippocampus. The experiment in a line: In vivo microglial depletion. The conditions noted are these: for Mean Cortical Ibal + Cell Density ± SEM (mm^−2) / Mean Hippocampal Ibal + Cell Density ± SEM (mm^−2): oral gavage BID 7 days; for Mean Cortical Ibal + Cell Density ± SEM (mm^−2): cortex; for Mean Hippocampal Ibal + Cell Density ± SEM (mm^−2): hippocampus. On the set-up: species or system C57BL/6 mice. The protocol: To measure the in vivo pharmacodynamic effect, we quantified microglial depletion following repeated dosing of our compound in naive animals. Female C57BL/6 mice were given Example 134 (0, 50, 100, or 200 mg/kg/day, respectively) by oral gavage BID for 7 days. Following the final dose, mice were perfused with PBS followed by 4% paraformaldehyde (PFA). Brains were post-fixed overnight in 4% PFA and then transferred to 30% sucrose solution. Sagittal sections were sliced and stained for the microglial marker Iba1 and counterstained for DAPI. Brain sections were then imaged under 20× wide-field imaging, and the microglia density was quantified in the cortex and hippocampus.

[7] abbreviates: EOC2 cells, 72 hours treatment, read-out: ECO2 EC50.

Sequence of CSF-1R (P07333 20-972): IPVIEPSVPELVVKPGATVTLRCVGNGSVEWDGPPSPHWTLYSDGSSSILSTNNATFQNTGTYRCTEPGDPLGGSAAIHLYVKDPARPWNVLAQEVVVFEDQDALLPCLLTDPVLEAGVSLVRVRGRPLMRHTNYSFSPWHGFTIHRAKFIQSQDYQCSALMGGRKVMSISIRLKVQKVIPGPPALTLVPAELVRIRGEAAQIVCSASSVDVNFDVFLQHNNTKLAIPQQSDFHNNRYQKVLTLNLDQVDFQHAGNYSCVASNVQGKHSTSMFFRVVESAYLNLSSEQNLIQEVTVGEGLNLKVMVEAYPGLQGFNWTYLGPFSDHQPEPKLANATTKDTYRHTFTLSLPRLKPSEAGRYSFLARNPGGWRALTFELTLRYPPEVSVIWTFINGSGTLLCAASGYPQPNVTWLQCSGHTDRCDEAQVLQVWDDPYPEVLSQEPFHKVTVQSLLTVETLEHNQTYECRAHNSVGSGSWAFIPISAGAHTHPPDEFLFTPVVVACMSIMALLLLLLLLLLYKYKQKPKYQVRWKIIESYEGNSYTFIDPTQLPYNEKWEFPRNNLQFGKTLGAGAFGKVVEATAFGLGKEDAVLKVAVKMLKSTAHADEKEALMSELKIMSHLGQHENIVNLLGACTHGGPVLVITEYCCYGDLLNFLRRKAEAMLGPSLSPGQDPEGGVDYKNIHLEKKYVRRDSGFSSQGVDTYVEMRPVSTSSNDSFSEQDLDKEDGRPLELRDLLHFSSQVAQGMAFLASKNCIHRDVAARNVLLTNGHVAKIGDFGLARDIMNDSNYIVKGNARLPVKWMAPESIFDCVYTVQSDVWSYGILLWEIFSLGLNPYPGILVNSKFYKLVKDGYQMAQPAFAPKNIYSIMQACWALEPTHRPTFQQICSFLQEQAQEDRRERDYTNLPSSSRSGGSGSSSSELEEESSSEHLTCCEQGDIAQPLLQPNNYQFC
Sequence of FLT3 (P36888 27-993): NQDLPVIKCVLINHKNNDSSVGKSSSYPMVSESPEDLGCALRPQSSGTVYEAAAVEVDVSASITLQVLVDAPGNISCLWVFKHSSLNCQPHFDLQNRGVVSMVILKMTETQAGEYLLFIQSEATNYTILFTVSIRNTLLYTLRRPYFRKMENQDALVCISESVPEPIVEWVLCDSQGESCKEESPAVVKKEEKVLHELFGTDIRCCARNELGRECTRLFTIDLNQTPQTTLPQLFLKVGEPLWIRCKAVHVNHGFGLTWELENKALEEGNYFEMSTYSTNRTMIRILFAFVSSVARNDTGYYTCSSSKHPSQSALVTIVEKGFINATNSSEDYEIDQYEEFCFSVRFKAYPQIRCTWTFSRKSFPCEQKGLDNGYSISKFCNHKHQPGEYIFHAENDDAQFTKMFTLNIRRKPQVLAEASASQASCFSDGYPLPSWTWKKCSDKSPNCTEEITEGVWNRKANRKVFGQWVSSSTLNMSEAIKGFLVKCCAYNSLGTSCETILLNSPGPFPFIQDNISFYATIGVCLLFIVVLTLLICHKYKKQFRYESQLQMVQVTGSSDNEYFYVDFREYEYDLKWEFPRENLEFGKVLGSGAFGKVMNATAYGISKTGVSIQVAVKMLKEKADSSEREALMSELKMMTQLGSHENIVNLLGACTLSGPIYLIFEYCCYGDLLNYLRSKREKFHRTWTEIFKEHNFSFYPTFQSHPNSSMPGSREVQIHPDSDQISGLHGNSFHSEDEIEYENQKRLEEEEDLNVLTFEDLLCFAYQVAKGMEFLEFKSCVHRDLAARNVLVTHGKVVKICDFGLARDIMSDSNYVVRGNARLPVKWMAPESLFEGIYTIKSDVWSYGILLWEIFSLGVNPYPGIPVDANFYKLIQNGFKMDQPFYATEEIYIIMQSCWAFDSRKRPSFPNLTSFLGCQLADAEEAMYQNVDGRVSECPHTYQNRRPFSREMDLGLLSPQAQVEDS

Turning to `COc1ccc(COc2ncc(Cc3ccnc4cc(N5CCN(C)CC5)cnc34)cc2OC)nc1` [Example 116], the concentration for a half-maximal effect (EC50) in the data set with EOC2 cell (setting [7]) worked out at 10 nM. The IC50 on CSF-1R (Table 2) is 3 nM; at CSF-1R (Table 3) it was 3 nM; at FLT3, above 1000 nM. Moreover, the fraction unbound at 4 h, 2 µM in data set [1] is 0.042. Further, at FLT3, the “FLT3 Fold” value is given as above 100 fold.

With `COc1cnc2c(Cc3cnc(OCc4cc5n(n4)C[C@H](OC)C5)c(OC)c3)ccnc2c1` [Example 136, (R)-3-methoxy-8-((5-methoxy-6-((5-methoxy-5,6-dihydro-4H-pyrrolo[1,2-b]pyrazol-2-yl)methoxy)pyridin-3-yl)methyl)-1,5-naphthyridine], the concentration for a half-maximal effect (EC50) in the data set with EOC2 cell (read-out: ECO2 EC50 (nM)) was found to be 94.8 nM. For the same compound, the half-maximal inhibitory concentration (IC50) on CSF-1R (Table 2) and at CSF-1R (Table 3) was 5 nM each time. Further, the fraction unbound at 4 h, 2 µM in [1] is 0.005.

With `COc1ccc(COc2ncc(Cc3ccnc4cc(OC)cnc34)cc2OC)nc1` [Example 16, 3-methoxy-8-((5-methoxy-6-((5-methoxypyridin-2-yl)methoxy)pyridin-3-yl)methyl)-1,5-naphthyridine], the half-maximal effective concentration (EC50) in data set [2] is 47.2 nM; in [4], 21.4 nM; in the data set on EOC2 cell (setting [7]), 39.2 nM; in the data set with BV2 cells it was 45.4 nM; in [5] it was 10.8 nM. Besides, the “CSF1R phosphorylation in CSF1R-stimulated THP-1 monocytes” value in data set [3] is given as “dose-dependent inhibition of CSF1R phosphorylation”. Also, the concentration for half-maximal inhibition (IC50) at CSF-1R (Table 2) is 2.1 nM; on CSF-1R (Table 3), 2.1 nM; at FLT3, above 1000 nM. Moreover, the fraction unbound at 4 h, 2 µM in data set [1] is 0.0063. Moreover, the “FLT3 Fold” value on FLT3 is recorded as above 100 fold.

Turning to `COc1ccc(COc2ncc(Cc3ccnc4cc(-c5ccn(C)n5)cnc34)cc2OC)nc1` [Example 134, 8-((5-methoxy-6-((5-methoxypyridin-2-yl)methoxy)pyridin-3-yl)methyl)-3-(1-methyl-1H-pyrazol-3-yl)-1,5-naphthyridine], the EC50 with EOC2 cell (setting [7]) came to 5.5 nM. In addition, the 50% inhibitory concentration (IC50) on CSF-1R (Table 2) is 6.6 nM. Besides, the 50% inhibitory concentration (IC50) at CSF-1R (Table 3) was 6.6 nM. Besides, the fraction unbound at 4 h, 2 µM in data set [1] is 0.008. In data set [6] (50 mg/kg), the “decrease of microglia density in the cortex compared to vehicle control” value (“decrease … compared to vehicle control” for short) was above 22%, the “Mean Cortical Ibal + Cell Density ± SEM (mm^−2)” value was found to be 63.6 ± 8.1 mm^−2 and the “Mean Hippocampal Ibal + Cell Density ± SEM (mm^−2)” value was found to be 73.3 ± 7.8 mm^−2. Besides, in data set [6] (100 mg/kg), the “decrease … compared to vehicle control” value was above 91%, the “decrease of microglia density in the hippocampus relative to vehicle control” value is reported as above 83%, the “Mean Cortical Ibal + Cell Density ± SEM (mm^−2)” value turned out to be 6.9 ± 1.2 mm^−2 and the “Mean Hippocampal Ibal + Cell Density ± SEM (mm^−2)” value was 13.6 ± 2.2 mm^−2. In addition, in data set [6] (200 mg/kg), the “decrease … compared to vehicle control” value is recorded as above 98%, the “decrease of microglia density in the hippocampus relative to vehicle control” value was above 93%, the “Mean Cortical Ibal + Cell Density ± SEM (mm^−2)” value is listed as 1.5 ± 0.3 mm^−2 and the “Mean Hippocampal Ibal + Cell Density ± SEM (mm^−2)” value is reported as 5.6 ± 0.9 mm^−2.

For `COc1cnc2c(Cc3cnc(OCc4cc5n(n4)CCOC5)c(OC)c3)ccnc2c1` [Example 73, 2-(((3-methoxy-5-((7-methoxy-1,5-naphthyridin-4-yl)methyl)pyridin-2-yl)oxy)methyl)-6,7-dihydro-4H-pyrazolo[5,1-c][1,4]oxazine], the EC50 in the data set with EOC2 cell (read-out: ECO2 EC50 (nM)) was determined as 47.5 nM. The IC50 on CSF-1R (Table 2) is 3.3 nM; at CSF-1R (Table 3), 3.3 nM; at FLT3 it was above 1000 nM. Further, the fraction unbound at 4 h, 2 µM in [1] is 0.01. The “FLT3 Fold” value on FLT3 is above 100 fold.

For the origin of these results see patent US20250360145A1, “CSF-1R INHIBITORS AND USES THEREOF” (Myrobalan Therapeutics, Inc., priority 2022, published 2025).
